Consider 15 compounds from US20090105212A1, “NOVEL ADENINE COMPOUND” (priority 2005, published 2009).

This experiment addresses T1, Human TLR7 (Homo sapiens, UniProt Q9NYK1).
T1 construct: expressed in transfected cells; host or cells: HEK293 (hTLR7/seap-293)
T1 sequence (Q9NYK1 27-1049): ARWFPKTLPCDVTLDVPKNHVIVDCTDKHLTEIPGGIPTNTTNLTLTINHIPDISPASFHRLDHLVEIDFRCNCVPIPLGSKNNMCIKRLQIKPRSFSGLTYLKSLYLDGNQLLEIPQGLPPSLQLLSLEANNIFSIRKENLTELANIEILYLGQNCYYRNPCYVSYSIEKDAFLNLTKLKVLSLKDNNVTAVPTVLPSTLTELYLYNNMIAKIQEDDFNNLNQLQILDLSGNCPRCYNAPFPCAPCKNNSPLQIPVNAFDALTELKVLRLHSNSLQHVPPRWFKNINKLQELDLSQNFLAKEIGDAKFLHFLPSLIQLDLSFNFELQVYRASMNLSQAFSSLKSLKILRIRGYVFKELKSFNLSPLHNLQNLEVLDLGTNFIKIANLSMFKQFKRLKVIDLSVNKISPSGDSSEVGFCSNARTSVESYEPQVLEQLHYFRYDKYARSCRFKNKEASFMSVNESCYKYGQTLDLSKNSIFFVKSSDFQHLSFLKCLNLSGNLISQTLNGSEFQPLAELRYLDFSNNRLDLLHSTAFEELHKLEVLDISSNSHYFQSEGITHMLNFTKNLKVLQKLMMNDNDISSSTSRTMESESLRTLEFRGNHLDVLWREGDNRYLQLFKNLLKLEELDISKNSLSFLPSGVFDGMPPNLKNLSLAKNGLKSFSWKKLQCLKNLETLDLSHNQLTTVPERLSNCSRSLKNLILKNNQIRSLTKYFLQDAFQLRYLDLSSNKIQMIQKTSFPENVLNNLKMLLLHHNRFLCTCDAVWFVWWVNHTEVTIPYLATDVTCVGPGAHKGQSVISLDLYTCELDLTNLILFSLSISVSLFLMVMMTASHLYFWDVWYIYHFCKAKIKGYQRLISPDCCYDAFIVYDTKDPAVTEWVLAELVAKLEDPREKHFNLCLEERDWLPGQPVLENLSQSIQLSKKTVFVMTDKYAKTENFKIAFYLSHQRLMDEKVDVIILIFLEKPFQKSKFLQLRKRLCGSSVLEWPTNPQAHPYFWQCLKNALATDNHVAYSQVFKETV
The experiment is described as follows: Human TLR7 reporter assay (NF-kB-SEAP, HEK293 cells). Type of experiment: cell-based. The conditions noted are these: hTLR7/seap-293 cells (HEK293, NF-kB-SEAP reporter), 20 hours incubation, 1 nM-10 μM, absorbance 405 nm; read-out: human TLR7 binding activity (EC50). The method, then:
Human TLR7 Reporter Assay
Human TLR7 or rat TLR7 plasmid and reporter plasmid (NF-kB-SEAP) stably-induced HEK293 cells were suspended in DMEM media (10% […], 1% NEAA, 10 ug/mL blastocidin S HCl, 100 ug/mL Zeocin), and the suspension was seeded in 90 μl/well on 96 well plate (hTLR7/seap-293:20000 cells/well, rTLR7/seap-293:25000 cells/well).
To the cells seeded on 96 well plate was added in 10 μl/well a test compound wherein DMSO stock solution (2 μl) was hundredfold diluted with medium (200 μl) (final concentration; 1 nM-10 μM, common ratio 3). The mixture was stirred tapping in the side of the plate, and then incubated for 20 hours in CO2 incubator. To the cells stimulated by a test compound was added a substrate for reporter assay (substrate for SEAP, pNPP) by 50 μl/well. 10 minutes after the addition of substrate, a quenching solution (4N NaOH) was added by 50 μl/well, and the enzymatic reaction was quenched. Top seal A was attached on the plate, and absorbance was measured by microplate reader (405 nm).
As to `CCCCOc1nc(N)c2[nH]c(=O)n(Cc3ccc(OCCCCN4CCC(C(=O)OC)CC4)cc3)c2n1` [Example 1, 2-Butoxy-7,8-dihydro-9-[4-{4-[4-(methoxycarbonyl)-piperidin-1-yl]butoxy}benzyl]-8-oxoadenine], the concentration for a half-maximal effect (EC50) turned out to be 5.7 nM. The same measure for `CCCCOc1nc(N)c2[nH]c(=O)n(Cc3ccc(OCCCCN4CCC(C(=O)OCCCCN(C)C)CC4)cc3)c2n1` [Example 3, 2-butoxy-7,8-dihydro-9-(4-[4-{4-[4-(N,N-dimethylamino)butoxycarbonyl]piperidin-1-yl}butoxy]benzyl)-8-oxoadenine]: 7.8 nM; for `CCCCOc1nc(N)c2[nH]c(=O)n(Cc3ccc(OCCCN(C)CC(=O)OC)cc3)c2n1` [Example 4, 2-butoxy-7,8-dihydro-9-[4-{3-[(N-methyl-N-methoxycarbonylmethyl)amino]propoxy}benzyl]-8-oxoadenine]: 7.8 nM; for `CCCCOc1nc(N)c2[nH]c(=O)n(Cc3ccc(OCC4CCN(CC(=O)OC)CC4)cc3)c2n1` [Example 5, 2-butoxy-7,8-dihydro-9-{4-[1-(methoxycarbonylmethyl)piperidin-4-ylmethyloxy]benzyl}-8-oxoadenine]: 3.6 nM. To `CCCCOc1nc(N)c2[nH]c(=O)n(Cc3ccc(OCC4CCN(CC(=O)OCCCCN(C)C)CC4)cc3)c2n1` [Example 7, 2-Butoxy-7,8-dihydro-9-[4-{1-[4-(N,N-dimethylamino)-butoxycarbonylmethyl]piperidin-4-ylmethyloxy}benzyl]-8-oxoadenine] belongs 5.1 nM; to `CCCCOc1nc(N)c2[nH]c(=O)n(Cc3ccc(CN(C)CC(=O)OC)cc3)c2n1` [Example 9, 2-Butoxy-7,8-dihydro-9-[4-(N-methoxycarbonylmethyl-N-methylaminomethyl)benzyl]-8-oxoadenine], 8.8 nM.

`COCCOc1nc(N)c2[nH]c(=O)n(Cc3ccc(CN(C)CC(=O)OC)cc3)c2n1` [Example 12, 7,8-Dihydro-9-[4-(N-methoxycarbonylmethyl-N-methylaminomethyl)benzyl]-2-(2-methoxyethoxy)-8-oxoadenine]: the EC50 was 252 nM. For `CCCCOc1nc(N)c2[nH]c(=O)n(Cc3ccc(CN(C)CC(=O)OC)cc3OC)c2n1` [Example 16, 2-Butoxy-7,8-dihydro-9-[2-methoxy-4-(N-methoxycarbonylmethyl-N-methylaminomethyl)benzyl]-8-oxoadenine], the half-maximal effective concentration (EC50) came out at 15.6 nM. Consider `CCCCOc1nc(N)c2[nH]c(=O)n(Cc3ccc(CCN4CCC(C(=O)OC)CC4)cc3)c2n1` [Example 18, 2-Butoxy-7,8-dihydro-9-{4-[2-(4-methoxycarbonyl-piperidin-1-yl)ethyl]benzyl}-8-oxoadenine], for which the EC50 was 2.2 nM.

As for `CCCCOc1nc(N)c2[nH]c(=O)n(Cc3ccc(CCN(C)CC(=O)OC)cc3)c2n1` [Example 20, 2-Butoxy-7,8-dihydro-9-{4-[2-(N-methoxycarbonylmethyl-N-methylamino)ethyl]benzyl}-8-oxoadenine], the EC50 amounted to 18.5 nM.

On to `CCCCOc1nc(N)c2[nH]c(=O)n(Cc3ccc(CCCN(C)CC(=O)OC)cc3)c2n1` [Example 21, 2-Butoxy-7,8-dihydro-9-{4-[3-(N-methoxycarbonylmethyl-N-methylamino)propyl]benzyl}-8-oxoadenine], for which the concentration giving a half-maximal response (EC50) turned out to be 6.8 nM. On to `CCCCOc1nc(N)c2[nH]c(=O)n(Cc3ccc(CN(C)CC(=O)OCCCCN(C)C)cc3OC)c2n1` [Example 23, 2-Butoxy-7,8-dihydro-9-{4-[N-(4-dimethylaminobutoxy-carbonylmethyl)-N-methylaminomethyl]-2-methoxybenzyl}-8-oxoadenine], for which the EC50 was 15.7 nM. `CCCCOc1nc(N)c2[nH]c(=O)n(Cc3ccc(OCCCCN4CCC(C(=O)OC)CC4)nc3)c2n1` [Example 24, 2-butoxy-7,8-dihydro-9-{6-[4-(4-methoxylcarbonylpiperidin-1-yl)butoxy]pyridin-3-ylmethyl}-8-oxoadenine]: the concentration giving a half-maximal response (EC50) was less than 1 nM. The same measure for `CCCCOc1nc(N)c2[nH]c(=O)n(Cc3ccc(OCCCCN(C)CC(=O)OC)nc3)c2n1` [Example 26]: 2.8 nM; for `CCCCOc1nc(N)c2[nH]c(=O)n(Cc3ccc(OCCCCN(C)CC(=O)OCCCCN(C)C)nc3)c2n1` [Example 28, 2-Butoxy-7,8-dihydro-9-[6-(4-{N′-methyl-N′-[4-(N,N-dimethylamino)butoxycarbonylmethyl]}aminobutoxy)pyridin-3-ylmethyl]-8-oxoadenine]: 2 nM.
